Each block holds one molecule with its values, some of them ahead of it.
Key:
[1] = molecular target: T1, Discoidin domain-containing receptor 2 (Homo sapiens) (UniProt Q16832); test: Selectivity interaction (KinomeScan (DiscoverX)) EUB0001049a DDR2; settings: at 1 µM
T1 sequence (whole entry): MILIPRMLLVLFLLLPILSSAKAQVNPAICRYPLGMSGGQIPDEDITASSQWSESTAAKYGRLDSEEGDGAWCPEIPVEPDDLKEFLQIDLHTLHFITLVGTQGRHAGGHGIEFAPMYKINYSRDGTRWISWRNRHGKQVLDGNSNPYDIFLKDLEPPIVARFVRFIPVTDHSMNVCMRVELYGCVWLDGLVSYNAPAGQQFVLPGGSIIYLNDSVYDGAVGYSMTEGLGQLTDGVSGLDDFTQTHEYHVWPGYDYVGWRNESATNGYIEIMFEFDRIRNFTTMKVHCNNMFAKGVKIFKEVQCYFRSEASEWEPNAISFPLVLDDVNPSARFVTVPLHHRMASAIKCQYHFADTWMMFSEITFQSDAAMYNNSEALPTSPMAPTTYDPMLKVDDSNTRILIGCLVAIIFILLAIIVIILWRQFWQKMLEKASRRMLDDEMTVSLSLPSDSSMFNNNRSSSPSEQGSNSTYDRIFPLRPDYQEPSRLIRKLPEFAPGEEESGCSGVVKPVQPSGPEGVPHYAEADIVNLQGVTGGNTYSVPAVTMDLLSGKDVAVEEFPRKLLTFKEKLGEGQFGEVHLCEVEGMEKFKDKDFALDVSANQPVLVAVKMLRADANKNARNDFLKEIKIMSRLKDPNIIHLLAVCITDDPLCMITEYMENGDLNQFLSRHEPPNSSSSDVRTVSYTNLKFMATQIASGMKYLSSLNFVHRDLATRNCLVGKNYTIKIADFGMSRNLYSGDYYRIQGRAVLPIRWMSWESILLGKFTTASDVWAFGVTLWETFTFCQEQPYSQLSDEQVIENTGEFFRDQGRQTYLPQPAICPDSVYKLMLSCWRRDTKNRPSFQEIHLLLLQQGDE

[2] = molecular target: T2, Dual specificity mitogen-activated protein kinase kinase 4 (Homo sapiens) (UniProt P45985); test: Selectivity interaction (ActivX KiNativ screen (kinase selectivity in THP-1 cell lysates)) EUB0000639a MAP2K4; assay type: subcellular; settings: lysate, at 0.04 µM
T2 sequence (whole entry): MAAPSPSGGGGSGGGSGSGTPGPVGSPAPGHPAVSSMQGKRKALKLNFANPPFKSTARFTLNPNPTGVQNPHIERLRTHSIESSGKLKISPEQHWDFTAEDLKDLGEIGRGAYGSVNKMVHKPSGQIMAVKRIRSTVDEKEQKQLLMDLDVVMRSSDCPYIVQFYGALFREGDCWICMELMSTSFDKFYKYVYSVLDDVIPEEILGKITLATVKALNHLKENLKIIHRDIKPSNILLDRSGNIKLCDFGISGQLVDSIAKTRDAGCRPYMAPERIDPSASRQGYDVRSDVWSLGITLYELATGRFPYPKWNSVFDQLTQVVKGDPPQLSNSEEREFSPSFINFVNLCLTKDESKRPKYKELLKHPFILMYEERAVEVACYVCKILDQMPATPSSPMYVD

[3] = molecular target: T1, Discoidin domain-containing receptor 2 (Homo sapiens); test: Selectivity interaction (Kinase panel (Invitrogen)) EUB0000639a DDR2; settings: at 200 nM
[4] = molecular target: Glycogen synthase kinase-3 alpha (Homo sapiens, UniProt P49840); test: Selectivity interaction (KinomeScan (DiscoverX)) EUB0000695a GSK3A; settings: at 100 nM
[5] = molecular target: T3, Tyrosine-protein kinase JAK3 (Homo sapiens) (UniProt P52333); test: Selectivity interaction (Antiproliferative activity against Tel-kinase transformed Ba/F3 cell line) EUB0000045b JAK3; assay type: cell-based; settings: BaF3
T3 sequence (whole entry): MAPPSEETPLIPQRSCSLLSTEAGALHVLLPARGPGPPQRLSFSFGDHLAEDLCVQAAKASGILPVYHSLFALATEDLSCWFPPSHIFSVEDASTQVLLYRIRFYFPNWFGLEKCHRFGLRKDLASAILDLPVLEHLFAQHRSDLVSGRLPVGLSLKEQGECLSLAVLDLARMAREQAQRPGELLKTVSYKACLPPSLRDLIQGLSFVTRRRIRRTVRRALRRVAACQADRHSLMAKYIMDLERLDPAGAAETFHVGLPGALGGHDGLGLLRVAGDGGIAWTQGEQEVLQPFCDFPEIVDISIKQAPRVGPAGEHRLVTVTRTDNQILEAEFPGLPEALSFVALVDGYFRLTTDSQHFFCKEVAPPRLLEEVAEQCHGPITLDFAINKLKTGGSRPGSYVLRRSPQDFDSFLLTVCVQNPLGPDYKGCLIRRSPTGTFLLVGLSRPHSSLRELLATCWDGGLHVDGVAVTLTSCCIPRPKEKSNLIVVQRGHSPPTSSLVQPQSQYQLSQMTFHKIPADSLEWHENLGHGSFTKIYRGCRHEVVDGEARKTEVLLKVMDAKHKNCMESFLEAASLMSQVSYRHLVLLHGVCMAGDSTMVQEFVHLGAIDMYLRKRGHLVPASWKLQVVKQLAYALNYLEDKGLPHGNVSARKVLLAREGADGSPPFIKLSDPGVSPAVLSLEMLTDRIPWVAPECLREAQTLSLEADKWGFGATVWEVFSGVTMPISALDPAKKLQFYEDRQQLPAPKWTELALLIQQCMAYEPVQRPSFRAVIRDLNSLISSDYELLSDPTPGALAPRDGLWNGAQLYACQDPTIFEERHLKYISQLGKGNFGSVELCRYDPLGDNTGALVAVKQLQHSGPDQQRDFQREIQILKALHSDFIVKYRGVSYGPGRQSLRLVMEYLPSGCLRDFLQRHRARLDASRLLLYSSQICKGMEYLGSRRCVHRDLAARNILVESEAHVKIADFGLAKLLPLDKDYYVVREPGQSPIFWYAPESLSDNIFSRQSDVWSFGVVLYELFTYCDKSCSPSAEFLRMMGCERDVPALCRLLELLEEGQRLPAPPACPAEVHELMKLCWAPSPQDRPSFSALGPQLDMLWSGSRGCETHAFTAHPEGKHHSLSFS

[6] = molecular target: Platelet-derived growth factor receptor beta (Homo sapiens, UniProt P09619); test: Selectivity interaction (KinomeScan (DiscoverX)) EUB0000045b PDGFRB
[7] = molecular target: Serine/threonine-protein kinase PAK 4 (Homo sapiens, UniProt O96013); test: Selectivity interaction (Kinase panel (DSF assay)) EUB0001559a PAK4
Sequence of Serine/threonine-protein kinase PAK 4 (O96013 whole entry, looked up): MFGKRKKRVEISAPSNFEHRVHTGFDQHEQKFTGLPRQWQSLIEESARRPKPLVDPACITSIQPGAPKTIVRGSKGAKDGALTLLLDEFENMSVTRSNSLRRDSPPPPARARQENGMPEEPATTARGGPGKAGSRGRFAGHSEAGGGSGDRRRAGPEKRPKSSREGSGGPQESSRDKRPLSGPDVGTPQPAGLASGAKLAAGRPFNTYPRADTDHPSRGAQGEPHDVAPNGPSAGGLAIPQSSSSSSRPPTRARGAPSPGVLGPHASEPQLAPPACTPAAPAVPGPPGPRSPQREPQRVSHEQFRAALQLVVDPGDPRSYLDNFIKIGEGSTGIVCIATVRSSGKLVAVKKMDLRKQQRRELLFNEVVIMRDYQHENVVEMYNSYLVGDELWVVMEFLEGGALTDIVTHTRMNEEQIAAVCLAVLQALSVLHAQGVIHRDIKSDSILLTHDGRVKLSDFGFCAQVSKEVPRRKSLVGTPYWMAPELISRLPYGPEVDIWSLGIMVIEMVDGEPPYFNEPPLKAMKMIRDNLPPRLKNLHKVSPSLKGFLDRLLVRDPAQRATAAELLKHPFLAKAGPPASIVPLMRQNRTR

Sequence of Platelet-derived growth factor receptor beta (P09619 whole entry): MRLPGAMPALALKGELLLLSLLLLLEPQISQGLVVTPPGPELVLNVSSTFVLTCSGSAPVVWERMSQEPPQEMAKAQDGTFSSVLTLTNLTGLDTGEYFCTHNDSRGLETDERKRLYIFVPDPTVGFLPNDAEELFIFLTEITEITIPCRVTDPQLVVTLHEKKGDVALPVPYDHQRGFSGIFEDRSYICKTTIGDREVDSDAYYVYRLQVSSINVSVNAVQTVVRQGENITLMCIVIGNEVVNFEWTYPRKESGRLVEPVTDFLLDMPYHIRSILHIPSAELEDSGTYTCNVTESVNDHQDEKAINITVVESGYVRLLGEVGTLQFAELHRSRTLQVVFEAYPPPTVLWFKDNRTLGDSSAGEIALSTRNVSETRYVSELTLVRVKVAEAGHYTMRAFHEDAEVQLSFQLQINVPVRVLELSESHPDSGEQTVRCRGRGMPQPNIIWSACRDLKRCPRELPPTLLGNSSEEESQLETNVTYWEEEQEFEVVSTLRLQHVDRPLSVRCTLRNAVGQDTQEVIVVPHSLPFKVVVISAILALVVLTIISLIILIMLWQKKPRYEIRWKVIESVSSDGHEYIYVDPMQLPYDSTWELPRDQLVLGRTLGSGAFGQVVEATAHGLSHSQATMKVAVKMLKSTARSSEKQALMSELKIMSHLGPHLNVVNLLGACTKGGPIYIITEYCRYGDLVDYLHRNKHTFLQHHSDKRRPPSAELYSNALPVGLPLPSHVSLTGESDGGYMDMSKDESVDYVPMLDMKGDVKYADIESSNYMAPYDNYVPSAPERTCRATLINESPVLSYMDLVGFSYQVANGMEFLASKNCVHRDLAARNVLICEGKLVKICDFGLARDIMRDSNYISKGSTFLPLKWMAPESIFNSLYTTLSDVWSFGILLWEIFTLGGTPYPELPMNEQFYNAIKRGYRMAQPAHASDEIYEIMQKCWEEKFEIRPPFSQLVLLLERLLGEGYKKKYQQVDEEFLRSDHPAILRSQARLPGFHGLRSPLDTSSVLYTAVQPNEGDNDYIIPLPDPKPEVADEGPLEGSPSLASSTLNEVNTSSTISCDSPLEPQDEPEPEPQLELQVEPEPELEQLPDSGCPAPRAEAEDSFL
Sequence of Glycogen synthase kinase-3 alpha (P49840 2-483 limits assumed): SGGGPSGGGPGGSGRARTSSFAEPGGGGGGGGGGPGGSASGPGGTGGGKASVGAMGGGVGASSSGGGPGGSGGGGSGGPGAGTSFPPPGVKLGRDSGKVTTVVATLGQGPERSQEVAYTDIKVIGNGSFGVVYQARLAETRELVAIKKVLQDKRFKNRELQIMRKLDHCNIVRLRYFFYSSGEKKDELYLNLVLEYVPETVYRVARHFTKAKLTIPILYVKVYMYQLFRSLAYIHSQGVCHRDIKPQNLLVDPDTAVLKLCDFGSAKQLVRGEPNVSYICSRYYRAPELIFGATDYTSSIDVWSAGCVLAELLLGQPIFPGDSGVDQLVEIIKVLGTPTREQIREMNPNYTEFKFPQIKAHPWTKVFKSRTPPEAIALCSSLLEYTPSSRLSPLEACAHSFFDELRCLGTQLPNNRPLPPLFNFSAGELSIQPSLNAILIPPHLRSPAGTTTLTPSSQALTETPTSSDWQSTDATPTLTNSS

Compound: COc1cc(Nc2nc(C)cc(-c3cnn4nc(OC)ccc34)n2)cc(C(F)(F)F)c1
% of control [1]: 65%

% of inhibition [2]: 8%
% of inhibition [3]: -2.26%
Compound: CC[C@@H]1[C@H](F)C(=O)N[C@@H]1COc1nccc2cc(C(N)=O)c(OC)cc12 [ZIMLOVISERTIB]

Compound: Cc1cc(F)c(C(=O)Nc2cccc(-c3nncn3C(C)C)n2)cc1-n1cnc(C2CC2)c1
% of control [4]: 80%

Compound: C=CC(=O)Nc1cc(-n2c(=O)ccc3cnc4ccc(-c5ccc(NS(C)(=O)=O)cc5)cc4c32)ccc1C
GIC50 [5]: 7.98 µM
% of control ([6]; at 1 µM): 76%
% of control ([6]; at 10 µM): 63%

dTM [7]: 0.4 K
Compound: CN(C(=O)c1cnn2cccnc12)c1cc2c(cc1N1CCOCC1)C(=O)N(C[C@@H](F)C(C)(C)O)C2

From ChEMBL document CHEMBL5465560, “Selectivity Literature for EUbOPEN Chemogenomic Library” (2024)
